{
  "source": "patent US8344159B2",
  "about": "“Carvedilol phosphate sesquihydrate” (priority 2006, dated 2013)",
  "key": {"[1]": {"assay": "stability compared to carvedilol base", "format": "physicochemical", "conditions": "color of final product, phosphate sesquihydrate"}, "[2]": {"assay": "solubility compared to carvedilol base"}, "[3]": {"conditions": "compared to the free base of carvedilol; disclosed in WO 2004/002419; cited from earlier work"}},
  "note": "Like-named read-outs stand apart in the source and are kept apart here.",
  "data": [
    {"smiles": "COc1ccccc1OCCNCC(O)COc1cccc2[nH]c3ccccc3c12.O=P(O)(O)O", "note": "(stereo not drawn) [carvedilol dihydrogen phosphate sesquihydrate]", "values": [
      {"measurement": "stability", "setting": "[1]", "value": "More stable as compared to carvedilol base"},
      {"measurement": "solubility", "setting": "[2]", "value": "Better solubility as compared to carvedilol base"}
    ]},
    {"smiles": "COc1ccccc1OCCNCC(O)COc1cccc2[nH]c3ccccc3c12.O=P(O)(O)O", "note": "(stereo not drawn) [carvedilol dihydrogen phosphate, Carvedilol dihydrogen phosphate]", "values": [
      {"measurement": "solubility", "setting": "[3]", "value": "higher solubility when compared to the free base of carvedilol"}
    ]}
  ]
}
